Reference: patent publication US12145920B2, “Lanthionine c-like protein 2 ligands, cells prepared therewith, and therapies using same” (NImmune Biopharma, Inc., priority 2019, dated 2024)

Tests used:
[1] = mice, oral dose of 10 mg/kg, comparison value; cited from earlier work
[2] = tested on: CD4+ T cells; assay: Immune effects in CD4+ splenocytes, flow cytometry (wild type); format: cell-based, C57BL/6 mice; conditions: 0.1 micromolar, 48 h, vs vehicle, FIG. 4B
From the text: Cell culture. Spleens were excised from C57BL/6 mice and assessed in wild-type and LANCL2 deficient states. Spleens were crushed between the frosted ends of microscope slides and filtered to provide a cellular suspension. Red blood cells were lysed through hypotonic lysis. Remaining cells were washed and filtered. CD4+ T cells were enriched within the suspension using magnetic sorting based negative selection. Cells were collected and plated within 96 well plates coated with anti-CD3 and cultured in the presence of BT-63 at 0, 0.1, 1 and 10 micromolar or BT-104A, BT-104B, or BT-104C at 0.1 micromolar for 48 h. During the last 6 h of culture, cells were stimulated with phorbol 12-myristate-13-acetate (PMA) and ionomycin.
Immunological analysis. Cells were collected from 96 well plates and stained with a cocktail of antibodies for immunophenotyping by flow cytometry. Culture supernatant was collected and assayed for cytokine concentrations by cytometric bead array. Data was captured on a BD FACS Celesta and analyzed using FacsDiva.

[3] = tested on: C57B1/6 mice immunized with chicken collagen; assay: Collagen induced model of arthritis; format: in vivo; conditions: spleens, 4 weeks daily oral 20 mg/kg vs vehicle
Procedure: Models. Six-week-old C57B1/6 mice were immunized with 200 μg of chicken collagen emulsified in complete Freund's adjuvant by intradermal injections at the base of the tail. Mice were treated with 20 mg/kg of BT-104-B or vehicle, daily for four weeks.
(§1) Immunological analysis. Spleens were excised from mice. Tissues were crushed and filtered to provide a cellular suspension. Red blood cells were lysed. Cells were labeled with mixtures of extracellular (CD45, CD3, CD4, CD8, CD11b, CD11c) and intracellular (IFNγ, IL17, TNF) antibodies in a sequential live staining in 96-well plates in preparation for flow cytometry. Data was captured on a BD FACS Celesta and analyzed using FACSDiva.

[4] = tested on: NZB/W F1 mice; assay: NZB/W F1 genetic mouse model of SLE (BT-104-B); format: in vivo; conditions: spleens, 12 weeks daily oral 20 mg/kg vs vehicle
Procedure: NZB/W F1 model. Twenty-four-week-old, female NZB/W F1 mice were randomized into vehicle or BT-104-B treated arms based on baseline urine protein levels. BT-104-B was administered daily at 20 mg/kg for 12 weeks. Mice were weighed on a weekly basis to update dosage formulation. Dosage was calculated based off mean body weights.
as §1, with “excised,” for “excised from mice. Tissues were”, “CD25)” for “CD11b, CD11c)”, “(IL21,” for “(IFNγ,”, “FOXP3)” for “TNF)”

[5] = tested on: C57BL/6 mice with CCl4-induced steatohepatitis; assay: CCl4 model of nonalcoholic steatohepatitis; format: in vivo; conditions: oral 20 mg/kg, after 2 weeks of treatment
Procedure: WD-induced model. C57BL/6 mice were administered bi-weekly intraperitoneal injections of 0.5 μL/g CCl4 to induce steatohepatitis for 4 weeks. Mice were treated daily, in a therapeutic manner after 2 weeks of injections. Treatment with BT-104-B (20 mg/kg) or vehicle control occurred by oral gavage. Dosage was calculated based off mean body weights.
Analysis. Livers were excised and weighed. Sections of livers were excised and stored in buffered formalin for Sirius red staining or snap frozen for assessment of fibrosis. Severity of fibrosis was assessed by scoring of Sirius red stained liver by microscopic examination.

SMILES | maximum plasma concentration [1] [ng/mL] | TNFa+ CD4+ T cells [2] | proportions of IFNγ+ CD4+ T cells [2] | proportion of IFNγ+ CD4+ T cells [3] | proportion of IL-17+ CD4+ T cells [3] | proportion of TNF+ CD11b+ CD11c+ myeloid cells [3] | proportion of CD25+ FOXP3+ CD4+ T cells [4] | proportion of IL21+ CD4+ T cells [4] | proportion of IL-17+ CD4+ T cells [4] | fibrotic scoring ([5]; Sirius red) | liver weights [5]
O=C(c1cccc(-c2nc3ccccc3[nH]2)n1)N1CCN(C(=O)c2cccc(-c3nc4ccccc4[nH]3)n2)CC1 [BT-11, N,N-Bis(benzimidazolylpicolinoyl)piperazine] | 4.9 | – | – | – | – | – | – | – | – | – | –
CC(C)(C(=O)c1ccccc1)N1CCN(C(=O)c2cccc(-c3nc4ccccc4[nH]3)n2)CC1 [BT-104-A] | – | significantly decreasing | significantly decrease | – | – | – | – | – | – | – | –
O=C(CN1C(=O)CN(C(=O)c2cccc(-c3nc4ccccc4[nH]3)n2)CC1=O)c1ccccc1 [BT-104-B, 4-(6-(1H-benzo[d]imidazol-2-yl)picolinoyl)-1-(2-oxo-2-phenylethyl)piperazine-2,6-dione] | – | significantly decreasing | significantly decrease | significantly reduced | significantly reduced | significantly reduced | significantly increasing | significantly reduced | significantly reduced | reduced | reduced
